Source: ChEMBL document CHEMBL1136543, “3,4-disubstituted azetidinones as selective inhibitors of the cysteine protease cathepsin K. Exploring P2 elements for selectivity” (Bioorg Med Chem Lett, 2003)

How the values were obtained:
[1] = target: T1, Cathepsin S (Homo sapiens, UniProt P25774); assay: Inhibitory activity was measured against Cathepsin S
Target sequence in this assay (P25774 whole entry): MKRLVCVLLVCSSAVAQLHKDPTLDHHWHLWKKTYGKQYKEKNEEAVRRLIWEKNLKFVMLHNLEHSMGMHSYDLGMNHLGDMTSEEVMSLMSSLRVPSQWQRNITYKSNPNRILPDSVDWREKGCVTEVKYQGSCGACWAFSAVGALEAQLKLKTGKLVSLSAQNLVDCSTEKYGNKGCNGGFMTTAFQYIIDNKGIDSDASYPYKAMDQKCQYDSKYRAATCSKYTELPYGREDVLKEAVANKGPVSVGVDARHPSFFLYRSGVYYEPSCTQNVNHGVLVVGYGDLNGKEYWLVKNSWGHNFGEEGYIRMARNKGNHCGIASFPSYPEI

[2] = target: T2, Procathepsin L (Homo sapiens, UniProt P07711); assay: Inhibitory activity was measured against Cathepsin L
Target sequence in this assay (P07711 whole entry): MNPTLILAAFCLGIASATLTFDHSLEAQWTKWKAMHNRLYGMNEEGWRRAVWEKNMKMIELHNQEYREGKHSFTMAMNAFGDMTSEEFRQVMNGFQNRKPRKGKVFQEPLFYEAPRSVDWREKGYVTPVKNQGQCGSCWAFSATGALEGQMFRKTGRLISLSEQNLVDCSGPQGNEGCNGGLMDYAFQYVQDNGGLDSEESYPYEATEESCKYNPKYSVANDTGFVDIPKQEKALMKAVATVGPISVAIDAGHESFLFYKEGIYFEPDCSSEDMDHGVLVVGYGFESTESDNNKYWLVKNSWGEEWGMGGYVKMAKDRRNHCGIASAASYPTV

[3] = target: T3, Cathepsin B (Homo sapiens, UniProt P07858); assay: Selectivity ratio between Cathepsin B and Cathepsin K
[4] = target: T4, Cathepsin K (Homo sapiens, UniProt P43235); assay: Inhibitory activity was measured against Cathepsin K
T4 sequence (P43235 whole entry): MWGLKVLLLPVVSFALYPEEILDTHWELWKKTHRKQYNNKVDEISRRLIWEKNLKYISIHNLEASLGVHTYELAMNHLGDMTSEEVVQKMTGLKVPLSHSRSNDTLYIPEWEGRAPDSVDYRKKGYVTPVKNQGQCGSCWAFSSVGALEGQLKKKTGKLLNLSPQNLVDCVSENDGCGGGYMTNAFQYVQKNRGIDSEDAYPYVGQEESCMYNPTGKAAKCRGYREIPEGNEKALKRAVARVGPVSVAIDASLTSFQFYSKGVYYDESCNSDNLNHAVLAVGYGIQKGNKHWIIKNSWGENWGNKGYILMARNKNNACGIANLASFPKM

[5] = target: T1, Cathepsin S; assay: Selectivity ratio between Cathepsin S and Cathepsin K
Target sequence in this assay (P25774 115-331 limits assumed): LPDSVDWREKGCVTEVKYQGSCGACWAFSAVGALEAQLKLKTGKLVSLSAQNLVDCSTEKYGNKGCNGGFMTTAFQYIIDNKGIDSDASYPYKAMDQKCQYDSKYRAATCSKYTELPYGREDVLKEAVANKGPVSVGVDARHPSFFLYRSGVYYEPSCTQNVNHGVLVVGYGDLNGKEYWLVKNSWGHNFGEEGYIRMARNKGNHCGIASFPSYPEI

[6] = target: T2, Procathepsin L; assay: Selectivity ratio between Cathepsin L and Cathepsin K
Target sequence in this assay (P07711 114-333 limits assumed): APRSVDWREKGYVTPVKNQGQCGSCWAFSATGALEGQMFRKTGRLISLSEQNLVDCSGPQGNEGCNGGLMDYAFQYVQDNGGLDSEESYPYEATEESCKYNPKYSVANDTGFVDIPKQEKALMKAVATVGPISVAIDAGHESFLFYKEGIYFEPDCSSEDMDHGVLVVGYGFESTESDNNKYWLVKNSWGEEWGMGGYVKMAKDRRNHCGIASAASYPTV

[7] = target: T3, Cathepsin B; assay: Inhibitory activity was measured against Cathepsin B

Ki [1] [µM] | Ki [2] [µM] | Ratio [3] | Ki [4] [µM] | Ratio [5] | Ratio [6] | Ki [7] [µM] | SMILES
33 | 3.4 | 368 | 0.38 | 87 | 9 | 140 | O=C(NC1(C(=O)N[C@@H]2C(=O)N[C@H]2Oc2ccccc2)CCCCC1)OCc1ccccc1
0.0092 | 0.088 | 950 | 0.0022 | 4 | 40 | 2.1 | CC(=O)O[C@@H]1NC(=O)[C@H]1NC(=O)[C@H](CC(C)C)NC(=O)OCc1ccccc1
0.13 | 3.7 | 180 | 0.0088 | 15 | 420 | 1.6 | CC(=O)O[C@@H]1NC(=O)[C@H]1NC(=O)[C@@H]1CCCC[C@@H]1NC(=O)OCc1ccccc1
28 | 140 | 48 | 0.16 | 175 | 870 | 7.7 | CC(=O)O[C@@H]1NC(=O)[C@H]1NC(=O)C1(NC(=O)OCc2ccccc2)CCCC1
> 150 | > 150 | 120 | 0.95 | > 160 | > 160 | 120 | CC(=O)O[C@@H]1NC(=O)[C@H]1NC(=O)C1CCCN1C(=O)OCc1ccccc1 (stereo partly drawn)
0.95 | 6.8 | 750 | 0.0057 | 160 | 1190 | 4.3 | CC(=O)O[C@@H]1NC(=O)[C@H]1NC(=O)C1(NC(=O)OCc2ccccc2)CCCCC1
20 | > 150 | 320 | 0.2 | 100 | > 750 | 65 | CC(=O)O[C@@H]1NC(=O)[C@H]1NC(=O)C1CCCCN1C(=O)OCc1ccccc1 (stereo partly drawn)
11 | > 150 | 24 | 2.1 | 5 | > 70 | 52 | CC(=O)O[C@@H]1NC(=O)[C@H]1NC(=O)[C@@H]1CCC[C@@H]1NC(=O)OCc1ccccc1
53 | 16 | > 40 | 3.6 | 15 | 4 | > 150 | O=C(NC1(C(=O)N[C@@H]2C(=O)N[C@@H]2Oc2ccccc2)CCCCC1)OCc1ccccc1
